Measurements published in patent publication US10517870B2, “Aryl substituted bicycle heteroaryl compounds” (Bristol-Myers Squibb Company, priority 2015, dated 2019).

Columns and labels:
Assay type in all cases: cell-based
[1] = tested on: HeLa (HPV18+) cells; assay: Cell proliferation/viability assay, HeLa cells; details: Homo sapiens, 96 h, 4 days
Protocol: (§1) Caski (catalog number CRL-1550), SiHa (catalog number HTB-35), C33A (catalog number HTB-31), Saos-2 (ATCC HTB-85), and Hela (catalog number CCL-2) cells were obtained from the American Type Culture Collection (ATCC). The human cervical carcinoma cell lines Caski. SiHa, Hela and C33A, and the human osteosarcoma cell line Saos-2, and the human keratinocyte cell line HaCaT were cultured in Dulbecco's Modified Eagle Medium (DMEM, Invitrogen catalog number 11965-092) supplemented with 10% fetal bovine serum. The colorectal carcinoma cell line HCT-116 was cultured in Roswell Park Memorial Institute-1640 Medium (Invitrogen catalog number 11875-093) supplemented with 10% FBS. All cells were incubated at 37° C. in a humidified atmosphere with 5% CO2 in air. To establish the SCHPV-18 cell line, one million primary neonatal human foreskin keratinocytes (Invitrogen, catalog no. C-001-5C), cultured in KBM Gold-keratinocvte cell basal medium (Lonza, catalog no. 192060), were electroporated with 5 μg HPV-18 plasmid DNA (ATCC catalog no. 45152D) using the Amaxa Nucleofector II on setting T-007. Cells were co-transfected with 2 μg plasmid pZSGreen1-N1 (Clontech catalog no. 632448) encoding G418 resistance, and cells were selected for four days in 100 μg/ml G418, after which selection was removed. Cells were maintained in culture six months prior to compound testing. Integration of the HPV 18 genome was confirmed by Southern blot. Control cells transfected in parallel with pZSGreen1-N1 alone became senescent four days after selection and the culture could not be expanded. SCHPV-18 cells were maintained in E medium (Fehrmann F, Laimins L A. Human papillomavirus type 31 life cycle: methods for study using tissue culture models. Methods Mol Biol 2005; 292:317-330).
(§2) For proliferation assays, cells were plated in white polystyrene 96-well plates (Costar catalog number 3917) for CellTiter Glo viability assays or 96-well special optics plates (Costar cat #3614) for CellTiter Blue viability assays. Cells were plated in the appropriate growth medium without antibiotics. Two hours after cell plating, a 200× compound stock diluted in DMSO was added to a final concentration of 0.5%. Plates were incubated at 37° C., for 4 days and then cell viability was assessed using either CellTiter Blue (Promega catalog number G8081) or CellTiter Glo (Promega catalog number G7572) according to the manufacturer's instructions. For the CellTiter Blue viability assay, data was collected using the SpectraMax Gemini EM (Molecular Devices) with an excitation wavelength of 530 nm and emission wavelength of 590 nm. For the CellTiter Glo viability assay, data was collected using the Envision Mulitlabel Reader (Perkin Elmer catalog number 2104-0010). To calculate IC50 and EC50 values, percent inhibition curves were fit using a four-parameter logistic formula [y=A+[…]], where A and B denote minimal and maximal % inhibition, respectively, C is the IC50 value, D is the Hill slope, and x represents compound concentration.
(§3) Table C, below, sets out the results obtained employing various compounds of the invention tested for their effects on proliferation of such cells. Caski or SiHa cells, transformed by HPV 16, Hela cells, transformed by HPV 18, or HPV-negative control cell lines (Saos-2 or C33a) were treated with various compounds. […] Unlike the HPV-negative Saos-2 or C33a cell lines, the HPV-transformed cell lines rely on the presence of HPV for their continued proliferation. Therefore, a comparison of IC50 values from HPV-transformed cell lines with IC50 values obtained from HPV-negative cell lines can be used to test for compound selectivity.

[2] = target: T1, PAR4 (Homo sapiens, UniProt Q96RI0); assay: PAR4 FLIPR assay (calcium mobilization, antagonist activity) in PAR4-expressing HEK293 cells
T1 construct: expressed in transfected cells; host or cells: HEK293 PAR4 Clone 1.2A
T1 sequence (Q96RI0 18-385): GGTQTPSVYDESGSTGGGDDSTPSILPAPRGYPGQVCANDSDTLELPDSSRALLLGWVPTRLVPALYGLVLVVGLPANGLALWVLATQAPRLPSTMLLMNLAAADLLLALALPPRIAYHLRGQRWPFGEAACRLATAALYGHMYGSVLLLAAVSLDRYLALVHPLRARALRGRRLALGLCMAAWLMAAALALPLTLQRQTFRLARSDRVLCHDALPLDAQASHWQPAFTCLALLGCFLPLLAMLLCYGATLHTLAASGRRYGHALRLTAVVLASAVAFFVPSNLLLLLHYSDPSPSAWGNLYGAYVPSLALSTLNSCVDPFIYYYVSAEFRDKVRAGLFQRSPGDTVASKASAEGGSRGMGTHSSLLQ
From the text: The FLIPR assay is an exemplary in vitro assay for measuring the activity of the PAR4 antagonists of the present invention. In this assay, intracellular calcium mobilization is induced in PAR4 expressing cells by a PAR4 agonist and calcium mobilization is monitored.
HEK293 cells stably expressing PAR4 were generated by a standard method of transfection of human PAR4 (F2R23) cDNA expression vector and selected based on PAR4 protein expression or mRNA expression. […] These cells also express endogenous PAR1 and can elicit calcium signal upon stimulation with PAR1 agonist peptide. Therefore, the same cells were also used to determine selectivity against PAR1 and agonist activity for both receptors. Cells from HEK293 PAR4 Clone 1.2A (BMS Arctic ID 383940) were propagated and used for calcium mobilization studies.
FLIPR-based calcium mobilization assay in HEK293 cells was used to measure PAR4 antagonism, agonism, and selectivity against PAR1. The activity of the PAR4 antagonists of the present invention were tested in PAR4 expressing cells by monitoring H-Ala-Phe(4-F)-[…]NH2-induced intracellular calcium mobilization. Counter screens for agonist activity and PAR1 antagonist activity were also performed. Briefly, PAR1/PAR4-expressing HEK293 cells were grown in DMEM (Life Technology, Grand Island, N.Y.) containing 10% heat-inactivated FBS, 1% Penicillin-Streptomycin, 10 μg/mL blasticidin, and 100 μg/mL Zeocin at 37° C. with 5% CO2. Cells were plated overnight prior to the experiment in a black 384-well Purecoat Amine clear bottom plate (Becton Dickinson Biosciences, San Jose, Calif.) at 10,000 cells/well in 30 μL growth medium and incubated in a humidified chamber at 37° C. with 5% CO2 overnight. Prior to compound addition, the cell medium was replaced with 40 μL of IX calcium and magnesium-containing Hank's Balanced Saline Solution (HBSS) (with 20 mM HEPES) and 1:1000 diluted fluorescent calcium indicator (Codex Biosolutions, Gaithersburg, Md.). After a 30 minute incubation period at 37° C., and a further 30 minute incubation and equilibration period at room temperature, 20 μL test compound (diluted in 1×HBSS buffer) was added at various concentrations at 0.17% dimethyl sulfoxide (DMSO) final concentration. Changes in fluorescence intensity were measured using a Functional Drug Screening System (FDSS, Hamamatsu, Japan) to determine agonist activities. The cells were then incubated for 30 minutes at room temperature followed by addition of 20 μL of agonist peptide for antagonist activity measurement. […] Compound potency was derived from 11-point concentration-response curves.

[3] = tested on: SiHa (HPV16+) cells; assay: Cell proliferation/viability assay, SiHa cells; details: Homo sapiens, 96 h, 4 days
Protocol: as §1, §2, §3

**Q.** What does the source list for `COc1ccc(-c2cc(C)cc3nc(OC(F)F)cnc23)cc1` [Example 6, 2-(difluoromethoxy)-5-(4-methoxyphenyl)-7-methylquinoxaline]?
**A.** IC50 [1]: 10.6 µM; IC50 [2]: 2.4 µM; IC50 [3]: 10.1 µM
